Measurements published in paper PMC6315541, “Nile Tilapia Derived Antimicrobial Peptide TP4 Exerts Antineoplastic Activity Through Microtubule Disruption” (Marine Drugs, 2018).

System: α-Tubulin
Assay: Co-immunoprecipitation (TP4 antibody pull-down), LC-MS/MS and immunoblot
Format: binding, Homo sapiens
Settings: lysates of A549 cells treated with 10 μg mL^−1 TP4 for 3 h
Protocol: To characterize the intracellular targets of TP4, cell lysates from A549 cells treated with 10 μg mL^−1 TP4 for 3 h were pulled down with the TP4 antibody, see Figure 1A. The dominant band was excised from the gel and analyzed by LC-MS/MS. Based on a MASCOT search for peptides found by MS, the potential binding target for TP4 was identified as α-Tubulin, see Figure 1C and Supplementary Dataset S1. […] Because tubulin is the major component of microtubules, we hypothesized that the cytotoxic effects of intracellular TP4 may be related to microtubule dynamics.
Figure 1 TP4 interacts with α-Tubulin. (A) Procedure showing the pull down of TP4 interaction partners with TP4 antibody. […] (C) Protein database searching of peptides detected by MS identified α-Tubulin as a TP4 binding partner. α-Tubulin sequence is shown. […]
Cell lysates were prepared in immunoprecipitation (IP) detergent (50 mM Tris-HCl, pH 8.0, 150 mM NaCl, 1% Igepal CA-630: Sigma-Aldrich, St. Louis, MO, USA) with protease cocktail (Roche Applied Science, Mannheim, Germany). […] The mass spectrometry data were analyzed by Mascot engine (v.2.6.0) (Matrix Science Inc., Boston, MA, USA) to identify candidate interaction targets. […] Signals were detected by enhanced chemiluminescence (Immobilon Western Chemiluminescent HRP substrate, Merck Millipore, Billerica, MA, USA) on an imaging system (UVP, BioSpectrumTM 500, Upland, CA, USA). […]

For “FIHHIIGGLFSAGKAIHRLIRRRRR [TP4, synthesized Nile tilapia-derived antimicrobial peptide, Tilapia piscidin 4]”, the “interaction with α-Tubulin (IP with TP4 antibody, probed with α-Tubulin antibody)” value was “confirming the interaction between TP4 and α-Tubulin”.
